Measurements as given in patent US20260193250A1, “TOLL-LIKE RECEPTOR 7 AGONISTS AS IMMUNE-STIMULATORS TO ELICIT THE INNATE ANTITUMOR IMMUNITY” (Merck Patent GmbH, priority 2022, published 2026).

Legend:
hTLR8 = molecular target: T1, hTLR8 (Homo sapiens, UniProt Q9NR97); assay: TLR8 reporter assay in HEK-Blue cells (SEAP, Quanti-Blue); type: cell-based; details: 24 hours incubation, SEAP absorbance at 620 nm
T1 construct: host or cells: HEK-Blue hTLR8 (HEK293-derived SEAP reporter cells)
T1 sequence (Q9NR97 27-1041): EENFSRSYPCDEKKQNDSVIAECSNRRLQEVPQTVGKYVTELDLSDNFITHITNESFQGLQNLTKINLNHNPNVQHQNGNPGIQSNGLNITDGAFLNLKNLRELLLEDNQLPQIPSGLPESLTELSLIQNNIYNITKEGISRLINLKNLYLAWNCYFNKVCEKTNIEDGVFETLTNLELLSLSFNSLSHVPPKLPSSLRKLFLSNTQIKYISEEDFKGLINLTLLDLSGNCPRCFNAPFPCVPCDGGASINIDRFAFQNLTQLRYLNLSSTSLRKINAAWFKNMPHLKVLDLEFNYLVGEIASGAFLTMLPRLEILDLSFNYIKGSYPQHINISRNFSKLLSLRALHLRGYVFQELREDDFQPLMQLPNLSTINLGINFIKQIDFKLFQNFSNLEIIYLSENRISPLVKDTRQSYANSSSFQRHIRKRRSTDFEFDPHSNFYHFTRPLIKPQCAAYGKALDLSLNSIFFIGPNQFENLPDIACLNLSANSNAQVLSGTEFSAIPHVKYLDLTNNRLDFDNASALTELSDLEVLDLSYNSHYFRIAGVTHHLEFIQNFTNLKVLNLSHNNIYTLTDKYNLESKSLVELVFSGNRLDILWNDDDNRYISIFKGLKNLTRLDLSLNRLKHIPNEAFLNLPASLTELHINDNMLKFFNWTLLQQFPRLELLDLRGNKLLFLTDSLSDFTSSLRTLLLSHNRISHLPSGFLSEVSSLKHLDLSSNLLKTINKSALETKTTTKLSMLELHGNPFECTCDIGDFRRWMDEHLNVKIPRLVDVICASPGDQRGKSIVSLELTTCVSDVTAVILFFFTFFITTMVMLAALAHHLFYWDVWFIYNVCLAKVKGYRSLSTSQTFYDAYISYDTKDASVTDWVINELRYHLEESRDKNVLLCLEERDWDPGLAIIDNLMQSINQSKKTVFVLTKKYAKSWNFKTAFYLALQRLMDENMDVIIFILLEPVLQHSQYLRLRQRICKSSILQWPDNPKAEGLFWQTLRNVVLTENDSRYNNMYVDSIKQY
Procedure: (§1) HEK-Blue™ TLR7 and TLR8 cell lines were obtained from InvivoGen (San Diego, CA, USA). HEK-Blue cells were cultured in DMEM medium hi glucose (Gibco-10569010) supplemented with 10% HI-FBS (Aus origin) (Gibco-10100-147), 1% penicillin/streptomycin (Gibco-15140-122-100 ml) as per manufacturer's recommendation. In addition, specific antibiotic mixtures were added to the culture. 100 μg/ml Zeocin (11006-33-0), 10 μg/ml Blasticidin (ant-bl-05), 50 μg/ml Normocin (ANT-NR-1-500 MG) for HEK-Blue™ hTLR7 and 100 μg/ml Zeocin, 30 μg/ml Blasticidin, 50 μg/ml Normocin for HEK-Blue™ hTLR8 cells (all from InvivoGen).
(§2) All the compounds were prepared in 100% DMSO (Sigma-D2650). The compounds were serially diluted in 100% DMSO (3 fold) up to 10 point dose response curve starting with 30 μM; final concentration of DMSO in the plate was 0.3%. Resiquimod and TL8-506 (InvivoGen-tlrl-t18506) were used as controls. 0.3% DMSO and 10 μM Resiquimod were used as min and max respectively, and % activation was calculated using following formula:
(§3) % Activation: {100−(max absorbance−absorbance)/(max absorbance−min absorbance)}×100.
(§4) For stimulation with TLR7/8 agonists, cells were resuspended in complete media and 40 μl of cell suspension (10,000 cells/well) was seeded on day 1 in 384 well assay plate (Thermo Scientific™ Nunc-164688) having pre-dispensed compounds with Echo Liquid handler. The plate was spun at 100 g for 1 min to settle down the cells and incubated at 37° C. with 5% CO2 for 24 hours. For measuring production of SEAP after 24 hrs of incubation, 10 μl of Quanti-Blue™ solution (InvivoGen rep-qbs2) prepared according to manufacturer's instructions was added in dark to the assay plate and incubated at 37° C. with 5% CO2 for 30 min. Post incubation, the absorbance was measured at 620 nm in Tecan spark (Spark control Magellan). EC50 were determined using Graph Pad Prism Statistical software (Version 7.05), with individual data points represent the absorbance values of duplicates.

hTLR7 = molecular target: T2, hTLR7 (Homo sapiens, UniProt Q9NYK1); assay: TLR7 reporter assay in HEK-Blue cells (SEAP, Quanti-Blue); type: cell-based; details: 24 hours incubation, SEAP absorbance at 620 nm
T2 construct: host or cells: HEK-Blue hTLR7 (HEK293-derived SEAP reporter cells)
T2 sequence (Q9NYK1 27-1049): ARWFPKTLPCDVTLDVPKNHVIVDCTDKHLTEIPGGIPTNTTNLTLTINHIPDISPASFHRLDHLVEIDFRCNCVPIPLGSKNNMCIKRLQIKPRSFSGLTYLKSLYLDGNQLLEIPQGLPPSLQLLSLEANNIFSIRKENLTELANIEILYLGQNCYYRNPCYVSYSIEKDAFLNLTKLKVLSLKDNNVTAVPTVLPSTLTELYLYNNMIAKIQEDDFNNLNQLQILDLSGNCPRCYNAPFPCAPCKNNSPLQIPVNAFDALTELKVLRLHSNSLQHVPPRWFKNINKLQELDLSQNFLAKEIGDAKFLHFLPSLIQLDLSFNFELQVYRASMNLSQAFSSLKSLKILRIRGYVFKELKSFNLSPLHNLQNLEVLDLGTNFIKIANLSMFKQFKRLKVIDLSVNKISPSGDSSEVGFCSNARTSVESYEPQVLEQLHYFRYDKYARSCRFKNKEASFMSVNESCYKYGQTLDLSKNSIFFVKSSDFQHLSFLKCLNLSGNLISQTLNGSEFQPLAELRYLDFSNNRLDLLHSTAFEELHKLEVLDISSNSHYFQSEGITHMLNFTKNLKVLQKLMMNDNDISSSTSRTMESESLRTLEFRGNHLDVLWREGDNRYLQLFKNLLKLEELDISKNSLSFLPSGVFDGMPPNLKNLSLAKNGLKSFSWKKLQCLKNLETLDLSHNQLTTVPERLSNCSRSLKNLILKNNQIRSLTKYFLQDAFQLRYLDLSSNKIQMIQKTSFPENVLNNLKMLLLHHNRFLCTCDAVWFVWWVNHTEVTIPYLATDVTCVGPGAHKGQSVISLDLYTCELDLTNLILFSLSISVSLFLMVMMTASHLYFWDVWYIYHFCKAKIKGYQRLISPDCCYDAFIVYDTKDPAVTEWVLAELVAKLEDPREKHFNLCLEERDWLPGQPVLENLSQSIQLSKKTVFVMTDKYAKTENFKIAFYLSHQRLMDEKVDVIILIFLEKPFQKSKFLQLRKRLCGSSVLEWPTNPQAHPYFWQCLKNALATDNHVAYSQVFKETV
Procedure: as §1, §2, §3, §4

EC50 (hTLR8) [µM] | EC50 (hTLR7) [µM] | Compound
> 10 | 1 to 10 | CCOCc1nc2c(N)nc3ccccc3c2n1CC(C)(C)OCCNC(=O)CS(=O)(=O)O [Example 25]
> 10 | 0.1 to 1 | CCOCc1nc2c(N)nc3ccccc3c2n1CC(C)(C)OCCNC(=O)CSC [Example 23]
1 to 10 | 0.01 to 0.1 | CCOCc1nc2c(N)nc3ccccc3c2n1CC(C)(C)OCCCCO [Example 6]
> 10 | 0.1 to 1 | CCOCc1nc2c(N)nc3ccccc3c2n1CC(C)(C)OCCNC(=O)C(C)(C)O [Example 21]
0.1 to 1 | 0.1 to 1 | CCOCc1nc2c(N)nc3ccccc3c2n1CC(C)(C)OCCNC(=O)CS(C)(=O)=O [Example 24]
0.1 to 1 | 0.1 to 1 | CCOCc1nc2c(N)nc3ccccc3c2n1CC(C)(C)OC(=O)CN1CCN(C)CC1 [Example 17]
0.1 to 1 | < 0.01 | CCOCc1nc2c(N)nc3ccccc3c2n1CC(C)(C)OCCCCCCN1CCN(C)CC1 [Example 5]
> 10 | 0.1 to 1 | CCOCc1nc2c(N)nc3ccccc3c2n1CC(C)(C)OCCNC(=O)CC(=O)OC [Example 22]
1 to 10 | 0.1 to 1 | CCOCc1nc2c(N)nc3ccccc3c2n1CC(C)(C)OCCNC(=O)CN1CCN(C)CC1 [Example 16]
1 to 10 | 0.1 to 1 | CCOCc1nc2c(N)nc3ccccc3c2n1CC(C)(C)OCCCCN1CCN(CCSC)CC1 [Example 26]
> 10 | > 10 | CCOCc1nc2c(N)nc3ccccc3c2n1CC(C)(C)OCCNC(=O)CO [Example 20]
1 to 10 | 0.01 to 0.1 | CCOCc1nc2c(N)nc3ccccc3c2n1CC(C)(C)OCCCC(=O)N1CCN(C)CC1 [Example 15]
1 to 10 | 0.01 to 0.1 | CCOCc1nc2c(N)nc3ccccc3c2n1CC(C)(C)OCCCCN1CCN(CCO)CC1 [Example 12]
1 to 10 | < 0.01 | CCOCc1nc2c(N)nc3ccccc3c2n1CC(C)(C)OCCN1CCN(C)CC1 [Example 1]
